# Reference: ChEMBL document CHEMBL1201862, “PubChem BioAssay data set” (2004)
# The source made the active and inactive calls.
# Tests used:
# [1] = target: Beta-galactosidase (Escherichia coli, UniProt Q8VNN2); experiment: Dose response counterscreen for EBI2 assay utilizing the enzyme, b-galactosidase.; assay type: functional
# [2] = inhibitors of non-replicating M. tuberculosis, dose response, luciferase, dry powder (AID 651620); assay type: functional; details: Mycobacterium tuberculosis
# [3] = growth inhibition of replicating M. tuberculosis, dose response, counter-screen, dry powder, IC90 (AID 651617); assay type: functional; details: Mycobacterium tuberculosis
# [4] = inhibitors of non-replicating M. tuberculosis, dose response, luciferase, dry powder (AID 651619); assay type: functional; details: Mycobacterium tuberculosis
# [5] = cytotoxicity in HeLa cells, dose response, cytotoxicity control, cell-based, plate reader, dry powder (AID 651946); assay type: functional
# [6] = target: T1, High affinity choline transporter 1 (Homo sapiens, UniProt Q9GZV3); experiment: CHT choline uptake inhibitors, dose response, cell-based, HEK-293 hCHT, [3H]-choline uptake (AID 652177); assay type: functional
# T1 sequence (Q9GZV3 whole entry): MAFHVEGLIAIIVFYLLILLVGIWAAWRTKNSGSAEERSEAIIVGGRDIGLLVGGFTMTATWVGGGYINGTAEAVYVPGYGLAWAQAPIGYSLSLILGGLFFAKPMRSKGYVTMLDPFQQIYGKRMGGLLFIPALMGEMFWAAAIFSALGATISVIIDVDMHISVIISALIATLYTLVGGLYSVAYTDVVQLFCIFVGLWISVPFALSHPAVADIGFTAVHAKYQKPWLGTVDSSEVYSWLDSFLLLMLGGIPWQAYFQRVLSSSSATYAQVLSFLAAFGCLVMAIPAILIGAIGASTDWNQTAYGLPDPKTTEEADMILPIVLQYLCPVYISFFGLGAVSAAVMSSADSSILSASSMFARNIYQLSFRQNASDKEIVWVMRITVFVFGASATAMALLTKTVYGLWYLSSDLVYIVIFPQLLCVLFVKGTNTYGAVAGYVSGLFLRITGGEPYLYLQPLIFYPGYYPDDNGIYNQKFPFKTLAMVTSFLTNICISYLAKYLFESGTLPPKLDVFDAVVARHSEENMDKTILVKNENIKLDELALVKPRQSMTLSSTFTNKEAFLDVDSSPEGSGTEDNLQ
# [7] = TRPM1 promoter luciferase reporter signal decrease, dose response, MITF inhibitor project, cell-based, SK-MEL-5, dry powder, set 8 (AID 624430); assay type: functional
# [8] = MITF Orthogonal Assay: SK-MEL-5 CTG Assay Measured in Cell-Based System Using Plate Reader - 2084-02_Inhibitor_Dose_DryPowder_Activity_Set7.; assay type: functional
# [9] = MITF: Counter assay: A375 proliferation Measured in Cell-Based System Using Plate Reader - 2084-03_Inhibitor_Dose_DryPowder_Activity_Set8.; assay type: functional; details: A-375
# [10] = target: T2, Beta-lactamase (Pseudomonas aeruginosa, UniProt Q79MP6); experiment: […] counterscreen for selective VIM-2 inhibitors: dose response biochemical high throughput screening assay to identify inhibitors of IMP-1 metallo-beta-lactamase.
# [11] = target: T2, Beta-lactamase; experiment: IMP-1 metallo-beta-lactamase inhibitors, dose response, selectivity assay for VIM-2 inhibitor project, biochemical, epi-absorbance (AID 1920)
# [12] = target: Beta-lactamase (Salmonella choleraesuis (strain SC-B67), UniProt Q5J463); experiment: Epi-absorbance-based counterscreen for selective VIM-2 inhibitors: dose response biochemical high throughput screening assay to identify inhibitors of TEM-1 serine-beta-lactamase.
# [13] = A Cell-Based Confirmatory Screen for Compounds that Inhibit VEEV, TC-83 (7).; assay type: functional
# [14] = Late stage assay provider results from the probe development effort to identify inhibitors of the Plasmodium falciparum M17 Leucine Aminopeptidase (M17LAP): radiolabel-based cell-based dose response assay to identify compounds that inhibit P. falciparum growth in RBCs Set 2.; assay type: functional
# [15] = NIH:OVCAR-3 ovarian cancer cell cytotoxicity, dose response, PAX8 inhibitor project, plate reader, dry powder samples (AID 743044); assay type: functional, cell-based
# [16] = cytotoxicity in OV-90 ovarian cancer cells, dose response, PAX8 inhibitor project, cell-based, plate reader, dry powder, SA8 (AID 743149); assay type: functional
# [17] = cytotoxicity in COV362 ovarian cancer cells, dose response, cytotoxicity control for PAX8 inhibitor project, cell-based, plate reader, dry powder, SA12 (AID 743144); assay type: functional
# [18] = cytotoxicity in OVCAR4 cells, dose response, cytotoxicity control for PAX8 inhibitor project, cell-based, plate reader, dry powder, SA11 (AID 743150); assay type: functional; details: OVCAR-4
# [19] = IGROV1 ovarian cancer cell cytotoxicity, dose response, PAX8 inhibitor project, plate reader, dry powder samples (AID 743043); assay type: functional, cell-based; details: IGROV-1
# [20] = target: Paired box protein Pax-8 (Homo sapiens, UniProt Q06710); experiment: inhibitors of PAX8-driven TPO luciferase reporter, dose response, RMG-I cells, cherry-pick (AID 687027); assay type: functional, cell-based;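 also: luciferase reporter driven by Pax8 target thyroperoxidase promoter measured by SteadyGlo luminescence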
# [21] = inhibitors of PGC1a acetylation in cells, dose response, cell-based, cherry-picked samples (AID 720514); assay type: functional;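 also: potency may reflect raised or lowered acetylation signal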
# [22] = cytotoxicity in OVCAR8 ovarian cancer cells, dose response, PAX8 project, cell-based, plate reader, dry powder samples (AID 743197); assay type: functional; details: OVCAR-8
# [23] = IOSE-T80 ovarian epithelial cell cytotoxicity, dose response, cytotoxicity control for PAX8 inhibitor project, plate reader, dry powder samples (AID 743045); assay type: functional, cell-based
# [24] = miR-122 activators in hepatoma reporter cells, dose response, cell-based, Huh7 psiCHECK-miR122, Renilla luciferase, cherry-picked (AID 651956); assay type: functional;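 also: huh7 hepatoma cells stably carrying a psiCHECK-2 miR-122 sensor plasmid; renilla luciferase signal reporting endogenous miR-122 activity after 48 h compound exposure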
# [25] = cytotoxicity dependent on PAX8, dose response, cell-based, plate reader, dry powder (AID 743049); assay type: functional
# [26] = cytotoxicity in COV434 cells, dose response, cytotoxicity control for PAX8 inhibitor project, cell-based, plate reader, dry powder, SA7 (AID 743145); assay type: functional
# [27] = Late stage assay provider results from the probe development effort to identify inhibitors of the Plasmodium falciparum M18 Aspartyl Aminopeptidase (M18AAP): radiolabel-based cell-based dose response assay to identify compounds that inhibit P. falciparum growth in RBCs, Set 2..; assay type: functional
# T2 sequence (Q79MP6 whole entry): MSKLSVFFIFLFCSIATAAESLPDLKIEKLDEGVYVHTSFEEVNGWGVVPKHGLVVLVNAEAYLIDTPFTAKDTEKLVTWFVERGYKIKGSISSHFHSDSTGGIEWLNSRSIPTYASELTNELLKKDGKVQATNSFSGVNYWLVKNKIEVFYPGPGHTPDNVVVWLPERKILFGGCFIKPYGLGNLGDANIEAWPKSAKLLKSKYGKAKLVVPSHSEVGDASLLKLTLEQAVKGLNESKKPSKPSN
# Chain of Beta-galactosidase (Q8VNN2 whole entry): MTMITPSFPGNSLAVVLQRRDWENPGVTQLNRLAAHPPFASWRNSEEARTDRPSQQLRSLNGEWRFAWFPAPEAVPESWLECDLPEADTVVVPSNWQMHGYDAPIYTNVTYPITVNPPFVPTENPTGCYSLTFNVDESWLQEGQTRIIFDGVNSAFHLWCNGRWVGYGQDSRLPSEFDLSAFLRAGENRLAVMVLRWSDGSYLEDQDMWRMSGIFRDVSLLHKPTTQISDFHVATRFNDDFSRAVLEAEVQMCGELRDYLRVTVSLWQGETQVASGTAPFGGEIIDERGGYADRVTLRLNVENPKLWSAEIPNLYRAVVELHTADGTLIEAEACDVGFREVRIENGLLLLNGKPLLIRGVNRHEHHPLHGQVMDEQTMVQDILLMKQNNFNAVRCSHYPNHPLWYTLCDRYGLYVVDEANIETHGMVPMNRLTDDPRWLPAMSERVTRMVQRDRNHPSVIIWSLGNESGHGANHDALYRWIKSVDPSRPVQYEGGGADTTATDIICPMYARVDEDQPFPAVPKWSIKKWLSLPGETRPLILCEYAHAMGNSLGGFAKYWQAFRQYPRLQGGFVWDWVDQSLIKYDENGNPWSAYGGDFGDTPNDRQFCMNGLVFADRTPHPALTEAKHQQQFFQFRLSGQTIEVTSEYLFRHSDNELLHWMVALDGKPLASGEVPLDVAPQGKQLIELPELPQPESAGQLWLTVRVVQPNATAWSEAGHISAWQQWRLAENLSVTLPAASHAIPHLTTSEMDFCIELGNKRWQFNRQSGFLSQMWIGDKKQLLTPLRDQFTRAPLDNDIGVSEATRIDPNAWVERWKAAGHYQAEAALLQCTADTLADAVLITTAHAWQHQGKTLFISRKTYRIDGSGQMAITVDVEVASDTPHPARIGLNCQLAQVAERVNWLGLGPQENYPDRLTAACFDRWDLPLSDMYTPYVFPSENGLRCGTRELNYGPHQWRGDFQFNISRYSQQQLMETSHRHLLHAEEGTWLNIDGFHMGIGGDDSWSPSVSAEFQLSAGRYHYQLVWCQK
# Chain of Beta-lactamase (Salmonella choleraesuis (strain SC-B67), UniProt Q5J463) (Q5J463 whole entry): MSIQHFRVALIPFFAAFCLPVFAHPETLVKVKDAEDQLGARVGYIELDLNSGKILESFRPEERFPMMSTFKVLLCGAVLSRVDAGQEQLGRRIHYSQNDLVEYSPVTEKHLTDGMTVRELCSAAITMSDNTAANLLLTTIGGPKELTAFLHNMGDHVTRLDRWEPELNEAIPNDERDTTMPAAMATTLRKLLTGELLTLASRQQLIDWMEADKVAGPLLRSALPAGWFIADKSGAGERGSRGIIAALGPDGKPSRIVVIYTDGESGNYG
# Chain of Paired box protein Pax-8 (Q06710 whole entry): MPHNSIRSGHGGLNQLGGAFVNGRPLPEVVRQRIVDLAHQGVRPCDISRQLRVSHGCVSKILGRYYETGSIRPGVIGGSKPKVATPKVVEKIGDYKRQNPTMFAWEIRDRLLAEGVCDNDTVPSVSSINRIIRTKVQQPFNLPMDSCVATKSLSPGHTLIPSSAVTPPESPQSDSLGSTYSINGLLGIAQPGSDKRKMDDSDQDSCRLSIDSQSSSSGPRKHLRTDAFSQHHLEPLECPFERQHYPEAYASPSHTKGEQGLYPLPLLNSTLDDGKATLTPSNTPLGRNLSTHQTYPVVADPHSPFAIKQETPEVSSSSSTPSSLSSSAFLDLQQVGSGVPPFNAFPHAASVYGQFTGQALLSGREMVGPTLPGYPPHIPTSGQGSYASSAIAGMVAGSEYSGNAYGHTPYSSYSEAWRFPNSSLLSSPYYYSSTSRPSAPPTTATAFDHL
structure (smiles),measurement,setting,value
O=C(COc1ccc(Cl)cc1)N1CCN(Cc2ccc([N+](=O)[O-])cc2)CC1,IC50,[1],> 80 µM (inactive)
Cc1cccc(CSc2nnc(-c3ccc(Cl)cc3)o2)n1,IC90,[2],2 µM (active)
same,IC90,[3],125 µM (active)
same,IC90,[4],2 µM (active)
same,AC50,[5],> 24 µM (inactive)
COc1ccc(C(=O)NCc2cc(C(C)C)no2)cc1OCCN1CCCCC1,IC50,[6],760 nM (active)
CCN1CCN(C2=C(Nc3ccc(Cl)c(Cl)c3)C(=O)c3ccccc3C2=O)CC1,AC50,[7],10.8 µM (active)
same,AC50,[8],9.55 µM (active)
same,AC50,[9],21.1 µM (active)
Cc1cccc(C(=O)Nc2nnc(SCC(=O)NCc3ccco3)s2)c1,IC50,[10],> 59.6 µM (inactive)
same,IC50,[11],> 59.6 µM (inactive)
same,IC50,[12],> 59.6 µM (inactive)
CN(c1ccc(OCc2ccccc2)cc1)c1nc(=O)c2cccnc2s1,IC50,[13],2.33 µM (active)
CCCOc1ccc(CC(=O)NO)cc1,IC50,[14],8.6 µM (active)
CN(C[C@H]1N[C@@H](CO)[C@@H]1c1ccc(C2=CCCC2)cc1)C(=O)c1ccc(F)cc1,AC50,[15],5.63 µM (active)
same,AC50,[16],9.17 µM (active)
same,AC50,[17],3.27 µM (active)
same,AC50,[18],1.57 µM (active)
same,AC50,[19],4.15 µM (active)
same,AC50,[20],895 nM (active)
same,AC50,[21],250 nM (active)
same,AC50,[22],4.04 µM (active)
same,AC50,[23],3.25 µM (active)
same,AC50,[24],13 µM (active)
same,AC50,[25],2.21 µM (active)
same,AC50,[26],5.17 µM (active)
COc1ccc(CCCNc2c3ccccc3nc3ccccc23)cc1OC,IC50,[27],2.2 µM (active)
